Structures are written as SMILES.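 Exposure lasted 48 hours, with cells grown in 96-well plates and compounds tested at five concentrations. Here, GI50 denotes the concentration required for 50% inhibition of growth.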 Calls of active or inactive are those of the source. Cut-off read from the data, not from the text of the source: active = GI50 up to about 1.1 µM and inactive = higher.

Test systems include M14; CCRF-CEM; LOX IMVI; CAKI-1; SNB-19; NCI-H460; A549; KM12; Hs-578T; MDA-MB-435; SK-MEL-5; ACHN; HL-60; MCF7; A498; TK-10; HT-29; RPMI-8226; MOLT-4; BT-549.
Common to all, as to experiment: NCI tumour cell line growth inhibition, 48 h

As to `COc1cc(C/N=c2/nc(N(C)C)ss2)cc(OC)c1OC`, the GI50 in the assay on M14 was > 9.1 µM (inactive); with CCRF-CEM, 0.189 µM (active); with LOX IMVI it was 2.1 µM (inactive); in the assay with CAKI-1 it was > 10 µM (inactive); with SNB-19, > 10 µM (inactive); with NCI-H460, > 10 µM (inactive). For the same compound, the GI50 is > 10 µM (inactive) with A549; > 7.59 µM (inactive) with KM12; > 10 µM (inactive) with Hs-578T; > 10 µM (inactive) with MDA-MB-435; > 10 µM (inactive) with SK-MEL-5; > 10 µM (inactive) in the assay on ACHN. Besides, the GI50 in the assay with HL-60 is 1.8 µM (inactive); with MCF7, > 5.78 µM (inactive); with A498, > 10 µM (inactive); with TK-10, > 10 µM (inactive); in the assay with HT-29 it was > 10 µM (inactive); in the assay on RPMI-8226, 2.48 µM (inactive). Besides, the GI50 in the assay on MOLT-4 is 2.81 µM (inactive).
As to `COC(=O)C1=CC(=O)OC1(OO)c1ccccc1` (centres undefined), the GI50 in the assay with M14 was > 100 µM (inactive); with CCRF-CEM, 18.7 µM (inactive); in the assay on LOX IMVI it was 94.8 µM (inactive); with CAKI-1 it was 38.8 µM (inactive); in the assay on SNB-19 it was > 100 µM (inactive); in the assay with NCI-H460 it was > 100 µM (inactive). In addition, the GI50 in the assay on A549 was > 100 µM (inactive); with KM12, > 100 µM (inactive); in the assay with MDA-MB-435, > 100 µM (inactive); with SK-MEL-5, > 100 µM (inactive); with ACHN, > 100 µM (inactive); in the assay on HL-60, 3.18 µM (inactive). Besides, the GI50 was > 100 µM (inactive) with BT-549; > 100 µM (inactive) with MCF7; > 100 µM (inactive) in the assay with TK-10; 56.4 µM (inactive) in the assay on HT-29; 62.2 µM (inactive) in the assay on MOLT-4.
With `CN(NC1=NCCO1)c1ccc2ccccc2c1`, the GI50 in the assay on M14 is 36 µM (inactive); in the assay on CCRF-CEM it was 17.2 µM (inactive); in the assay with LOX IMVI it was 37.4 µM (inactive); with CAKI-1 it was 32.9 µM (inactive); in the assay with SNB-19 it was 54.7 µM (inactive); with NCI-H460, 27.2 µM (inactive). The GI50 was 60.3 µM (inactive) in the assay on A549; 63.1 µM (inactive) with KM12; 35.2 µM (inactive) with Hs-578T; 34.5 µM (inactive) in the assay on MDA-MB-435; 29.2 µM (inactive) in the assay with SK-MEL-5; 62.8 µM (inactive) with ACHN. For the same compound, the GI50 with HL-60 was 26.9 µM (inactive); with MCF7, 48.6 µM (inactive); in the assay on A498, 44.3 µM (inactive); in the assay with TK-10 it was > 100 µM (inactive); in the assay on HT-29, 41.1 µM (inactive); with RPMI-8226 it was 76.7 µM (inactive). Further, the GI50 in the assay with MOLT-4 was 42.2 µM (inactive).
With `O=C(CCCl)NN=C1NCCCCN1`, the GI50 with M14, with CCRF-CEM, in the assay with LOX IMVI, with SNB-19, in the assay with NCI-H460 and in the assay with A549 was > 100 µM (inactive) in each case. Moreover, the GI50 in the assay with KM12, in the assay on Hs-578T, in the assay with MDA-MB-435, in the assay on SK-MEL-5, in the assay with ACHN and with HL-60 was > 100 µM (inactive) each time. The GI50 in the assay on BT-549, with MCF7, in the assay on TK-10, in the assay on HT-29, with RPMI-8226 and in the assay on MOLT-4 was > 100 µM (inactive) throughout.
As to `COc1ccc(OC(=O)N2C/C(=C\c3ccccc3)C(=O)/C(=C/c3ccccc3)C2)cc1`, the GI50 in the assay on M14 is 2.62 µM (inactive); in the assay on CCRF-CEM, 1.02 µM (active); in the assay on LOX IMVI, 0.962 µM (active); in the assay on SNB-19 it was 4.62 µM (inactive); in the assay on NCI-H460 it was 5.42 µM (inactive); in the assay on A549 it was 15.2 µM (inactive). Further, the GI50 with KM12 is 1.43 µM (inactive); in the assay with Hs-578T, 2.11 µM (inactive); in the assay with SK-MEL-5 it was 3.09 µM (inactive); in the assay on ACHN, 3.94 µM (inactive); in the assay with HL-60, 0.746 µM (active); in the assay with BT-549 it was 2.24 µM (inactive). For the same compound, the GI50 was 0.697 µM (active) in the assay on MCF7; 2.33 µM (inactive) in the assay with A498; 18.2 µM (inactive) in the assay with TK-10; 1.27 µM (inactive) with HT-29; 0.0476 µM (active) with RPMI-8226; 1.49 µM (inactive) in the assay with MOLT-4.
Turning to `COc1ccc(-c2nc(N)c(C#N)c3c2CCS(=O)(=O)c2ccc(C)cc2-3)cc1OC`, the GI50 is 28.4 µM (inactive) in the assay on M14; 48.3 µM (inactive) in the assay on LOX IMVI; 27 µM (inactive) in the assay with CAKI-1; 27.5 µM (inactive) in the assay with SNB-19; 28.2 µM (inactive) in the assay on NCI-H460; 26.4 µM (inactive) in the assay with A549. The GI50 was 19.4 µM (inactive) in the assay with KM12; 24.6 µM (inactive) in the assay on Hs-578T; 15.1 µM (inactive) with MDA-MB-435; 20.7 µM (inactive) in the assay with SK-MEL-5; 48.4 µM (inactive) with ACHN; 21.8 µM (inactive) in the assay with BT-549. For the same compound, the GI50 with A498 is 23.3 µM (inactive); in the assay on TK-10 it was 56.1 µM (inactive); in the assay with HT-29, 30.1 µM (inactive).
As to `CCN(CC)C(=S)SS(=O)(=O)c1ccc(Cl)cc1`, the GI50 in the assay on M14 was 17.3 µM (inactive); in the assay with LOX IMVI, 15.4 µM (inactive); with CAKI-1, 19.8 µM (inactive); with SNB-19 it was 38.3 µM (inactive); in the assay with NCI-H460, 29 µM (inactive); in the assay on A549 it was 0.484 µM (active). The GI50 in the assay with KM12 was 11.7 µM (inactive); with Hs-578T, 43.5 µM (inactive); with MDA-MB-435, 20.5 µM (inactive); in the assay on SK-MEL-5 it was 9.04 µM (inactive); in the assay with ACHN, 33.2 µM (inactive); in the assay with BT-549, 34.4 µM (inactive). Besides, the GI50 is > 100 µM (inactive) in the assay with A498, 67.8 µM (inactive) in the assay on TK-10, 17.8 µM (inactive) in the assay with HT-29 and 15 µM (inactive) with RPMI-8226.
Take `CCOC(=O)c1cn(-c2ccc(Cl)cc2)c(=O)n2c1nc1ccccc12`: the GI50 in the assay on M14, in the assay on CCRF-CEM, in the assay with LOX IMVI, in the assay with CAKI-1, in the assay on SNB-19 and with NCI-H460 was > 100 µM (inactive) throughout. For the same compound, the GI50 with A549, in the assay on KM12, in the assay with MDA-MB-435, with SK-MEL-5, in the assay on ACHN and in the assay on BT-549 was > 100 µM (inactive) throughout. Further, the GI50 is > 100 µM (inactive) in the assay on MCF7; > 100 µM (inactive) in the assay with A498; 88.3 µM (inactive) in the assay on HT-29; > 100 µM (inactive) in the assay on RPMI-8226; > 100 µM (inactive) with MOLT-4.

Source of the values: ChEMBL document CHEMBL1201862, “PubChem BioAssay data set” (2004).
